The source of these data is ChEMBL document CHEMBL5608240, “Structure-Activity Relationship of Inositol Thiophosphate Analogs as Allosteric Activators of Clostridioides difficile Toxin B” (J Med Chem, 2024).

pEC50, pKd: −log10 of the molar value. Activity calls are given as the source filed them. The calls are words filed in the database; no cut-off is given here.

Series [1] concerns the target Toxin B (Clostridioides difficile) (UniProt P18177). In words: Allosteric activation of Clostridioides difficile Toxin B assessed as induction of autoproteolysis by measuring increase in TcdB cleavage measured after 3 hrs by silver staining based SDS-PAGE analysis. The note with it: filed as positive allosteric modulator.
For series [2], the target named is T1, Toxin B (Clostridioides difficile, UniProt P18177). In words: Allosteric activation of Clostridioides difficile Toxin B assessed as induction of autoproteolysis measured after 3 hrs by Western blot based extent cleavage assay.
T1 sequence (P18177 whole entry): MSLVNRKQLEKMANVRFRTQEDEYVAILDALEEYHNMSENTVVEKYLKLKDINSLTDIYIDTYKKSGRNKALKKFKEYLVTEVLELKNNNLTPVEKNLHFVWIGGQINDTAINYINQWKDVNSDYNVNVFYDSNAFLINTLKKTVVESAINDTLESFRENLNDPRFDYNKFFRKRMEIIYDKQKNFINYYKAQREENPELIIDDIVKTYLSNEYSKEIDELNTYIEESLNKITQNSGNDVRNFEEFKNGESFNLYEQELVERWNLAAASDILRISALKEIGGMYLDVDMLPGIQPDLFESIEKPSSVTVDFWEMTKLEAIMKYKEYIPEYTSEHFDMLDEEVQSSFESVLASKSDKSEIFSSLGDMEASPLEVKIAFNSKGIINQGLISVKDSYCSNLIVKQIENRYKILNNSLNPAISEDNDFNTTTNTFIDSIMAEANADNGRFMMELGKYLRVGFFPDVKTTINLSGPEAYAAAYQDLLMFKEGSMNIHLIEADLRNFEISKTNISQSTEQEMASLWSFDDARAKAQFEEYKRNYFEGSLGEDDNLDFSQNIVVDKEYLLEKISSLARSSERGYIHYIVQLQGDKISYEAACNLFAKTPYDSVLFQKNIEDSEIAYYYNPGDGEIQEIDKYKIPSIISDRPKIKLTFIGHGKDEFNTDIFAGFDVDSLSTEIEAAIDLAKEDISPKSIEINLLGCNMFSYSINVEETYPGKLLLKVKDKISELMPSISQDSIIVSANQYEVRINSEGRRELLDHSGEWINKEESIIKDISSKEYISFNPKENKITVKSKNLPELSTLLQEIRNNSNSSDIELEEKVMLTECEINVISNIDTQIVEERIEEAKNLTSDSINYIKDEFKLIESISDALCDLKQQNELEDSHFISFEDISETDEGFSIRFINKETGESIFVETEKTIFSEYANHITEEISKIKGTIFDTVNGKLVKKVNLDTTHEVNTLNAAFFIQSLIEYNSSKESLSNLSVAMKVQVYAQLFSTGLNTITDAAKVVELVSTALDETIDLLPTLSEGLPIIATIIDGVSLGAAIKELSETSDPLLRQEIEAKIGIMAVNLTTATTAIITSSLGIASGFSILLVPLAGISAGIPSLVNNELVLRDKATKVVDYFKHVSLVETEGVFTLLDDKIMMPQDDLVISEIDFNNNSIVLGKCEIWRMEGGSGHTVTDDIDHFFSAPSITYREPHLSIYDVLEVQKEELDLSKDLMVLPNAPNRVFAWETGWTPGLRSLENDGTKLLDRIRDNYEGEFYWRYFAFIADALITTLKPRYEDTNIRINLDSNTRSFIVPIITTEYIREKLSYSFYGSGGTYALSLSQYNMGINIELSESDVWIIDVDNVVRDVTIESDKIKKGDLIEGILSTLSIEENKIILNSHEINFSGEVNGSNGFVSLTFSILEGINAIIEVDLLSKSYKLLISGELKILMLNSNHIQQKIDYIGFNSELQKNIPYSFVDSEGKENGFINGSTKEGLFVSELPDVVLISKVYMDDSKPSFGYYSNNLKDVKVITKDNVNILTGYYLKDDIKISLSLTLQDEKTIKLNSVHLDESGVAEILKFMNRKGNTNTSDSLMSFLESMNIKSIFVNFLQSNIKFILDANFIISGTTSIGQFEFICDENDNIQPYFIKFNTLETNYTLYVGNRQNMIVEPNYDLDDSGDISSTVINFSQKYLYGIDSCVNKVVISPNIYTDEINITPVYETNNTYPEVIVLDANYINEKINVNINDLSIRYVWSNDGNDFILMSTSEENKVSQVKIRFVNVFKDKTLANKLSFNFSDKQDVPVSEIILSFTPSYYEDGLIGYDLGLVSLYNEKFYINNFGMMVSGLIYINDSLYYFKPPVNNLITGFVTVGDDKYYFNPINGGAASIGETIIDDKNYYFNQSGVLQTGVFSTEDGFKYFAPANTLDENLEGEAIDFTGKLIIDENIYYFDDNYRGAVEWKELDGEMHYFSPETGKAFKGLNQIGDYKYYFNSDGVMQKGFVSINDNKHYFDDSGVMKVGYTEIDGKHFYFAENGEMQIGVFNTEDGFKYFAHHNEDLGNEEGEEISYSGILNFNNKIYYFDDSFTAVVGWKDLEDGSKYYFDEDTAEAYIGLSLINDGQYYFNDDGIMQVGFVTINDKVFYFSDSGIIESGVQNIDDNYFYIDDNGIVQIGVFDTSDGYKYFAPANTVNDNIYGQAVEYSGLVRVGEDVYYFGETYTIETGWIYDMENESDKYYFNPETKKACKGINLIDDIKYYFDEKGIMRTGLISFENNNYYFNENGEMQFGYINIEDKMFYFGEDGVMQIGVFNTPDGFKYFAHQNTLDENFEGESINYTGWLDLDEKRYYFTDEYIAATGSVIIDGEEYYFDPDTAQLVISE
A short description of series [3]: Solubility of compound assessed as precipitate formation at 250 uM at pH 2 to 8 incubated for 30 mins in presence of 3 to 10 mM CaCl2 by turbidimetric assay. The conditions noted are these: buffer, pH 2, 0.5 h. In kind it is physicochemical.
Series [4] concerns the target Toxin B (Clostridioides difficile) (UniProt P18177). In words: Allosteric activation of Clostridioides difficile Toxin B assessed as induction of autoproteolysis by measuring increase in TcdB cleavage at 50 uM incubated for 3 hrs in presence of 100 uM ZnCl2 by silver staining based SDS-PAGE analysis.
A short description of series [5]: Solubility of compound assessed as precipitate formation at 250 uM at pH 2 to 8 incubated for 30 mins in presence of 1.25 to 10 mM MgCl2 by turbidimetric assay. It is filed as physicochemical. The conditions noted are these: buffer, pH 2, 0.5 h.
The target in series [6] is Toxin B (Clostridioides difficile) (UniProt P18177). In words: Stabilization of His6 tagged Clostridioides difficile Toxin B truncated cysteine protease domain (543 to 799 residues) extracted from Escherichia coli BL21 (DE3) assessed as change in melting temperature by SYPRO Orange dye based differential scanning fluorometry analysis.
Sequence of Toxin B (Clostridioides difficile) (P18177 whole entry, the tested form may be a part): as the sequence (P18177 whole entry) above
Series [7] concerns the target T1, Toxin B. Briefly: Allosteric activation of Clostridioides difficile Toxin B assessed as induction of autoproteolysis measured after 3 hrs in presence of CaCl2, MgCl2, ZnCl2 by Western blot based extent cleavage assay.
Series [8] concerns the target Toxin B (Clostridioides difficile) (UniProt P18177). Briefly: Allosteric activation of Clostridioides difficile Toxin B assessed as induction of autoproteolysis by measuring increase in TcdB cleavage at 50 uM incubated for 3 hrs in presence of 3 mM CaCl2 by silver staining based SDS-PAGE analysis.
For series [9] the target is unchanged. In words: Binding affinity to His6 tagged Clostridioides difficile Toxin B truncated cysteine protease domain (543 to 799 residues) extracted from Escherichia coli BL21 (DE3) assessed as change in number of bound protons per binding interaction at 530 uM by ITC analysis. The note with it: filed as positive allosteric modulator.
The target in series [10] is T1, Toxin B. In words: Binding affinity to His6 tagged Clostridioides difficile Toxin B truncated cysteine protease domain (543 to 799 residues) extracted from Escherichia coli BL21 (DE3) assessed as dissociation constant by ITC method.
The nature of series [11]: Metal chelating activity assessed as compound-Ca2+ complex formation by measuring reduction in free cation concentration at 200 uM in presence of 200 uM CaCl2 by colorimetric assay.
Series [12] deals with Toxin B (Clostridioides difficile) (UniProt P18177). In words: Allosteric activation of Clostridioides difficile Toxin B assessed as induction of autoproteolysis by measuring increase in TcdB cleavage at 50 uM incubated for 3 hrs in presence of 1.25 mM MgCl2 by silver staining based SDS-PAGE analysis.
Series [13] addresses T1, Toxin B. Briefly: Binding affinity to His6 tagged Clostridioides difficile Toxin B truncated cysteine protease domain (543 to 799 residues) extracted from Escherichia coli BL21 (DE3) assessed as dissociation constant in presence of 10 mM Ca2+ by ITC method.
Series [14] in a line: Metal chelating activity assessed as compound-Mg2+ complex formation by measuring reduction in free cation concentration at 200 uM in presence of 200 uM MgCl2 by colorimetric assay.
Series [15] is described as follows: Solubility of compound assessed as precipitate formation at 250 uM at pH 2 to 8 incubated for 30 mins in presence of 20 to 100 uM ZnCl2 by turbidimetric assay. It is filed as physicochemical. The note with it: buffer, pH 2, 0.5 h.
In series [16] the target is Toxin B (Clostridioides difficile) (UniProt P18177). In words: Competitive binding affinity to His6 tagged Clostridioides difficile Toxin B truncated cysteine protease domain (543 to 799 residues) extracted from Escherichia coli BL21 (DE3) assessed as peaks with change in chemical shift perturbation by measuring residual activity at 350 uM in presence of (1R,2r,3S,4R,5s,6S)-cyclohexane-1,2,3,4,5,6-hexayl hexakis (dihydrogen phosphate) by 1H-15N-HSQC NMR analysis relative to control. The conditions noted are these: filed as positive allosteric modulator.

The target is the same in series [17]. In words: Stabilization of His6 tagged Clostridioides difficile apo-Toxin B truncated cysteine protease domain (543 to 799 residues) extracted from Escherichia coli BL21 (DE3) assessed as chemical shift perturbation by measuring increase in number of peaks by 1H-15N-HSQC NMR analysis (reference value: 141).
Series [18] shares this target. Briefly: Allosteric activation of Clostridioides difficile Toxin B assessed as induction of autoproteolysis by measuring maximal extent cleavage measured after 3 hrs by Western blot based extent cleavage assay relative to control. The note with it: filed as positive allosteric modulator.
For series [19] the target is unchanged. Briefly: Competitive binding affinity to His6 tagged Clostridioides difficile […]-Toxin B truncated cysteine protease domain (543 to 799 residues) extracted from Escherichia coli BL21 (DE3) assessed as peaks with change in chemical shift perturbation at 350 uM by 31P-NMR analysis.
Series [20] has the same target. Briefly: Allosteric activation of Clostridioides difficile Toxin B assessed as induction of autoproteolysis by measuring increase in TcdB cleavage at 50 uM incubated for 3 hrs in presence of 10 mM MgCl2 by silver staining based SDS-PAGE analysis.
For series [21] the target is unchanged. In words: Allosteric activation of Clostridioides difficile Toxin B assessed as induction of autoproteolysis by measuring increase in TcdB cleavage at 50 uM measured after 3 hrs by silver staining based SDS-PAGE analysis relative to control. The note with it: filed as positive allosteric modulator.
For series [22] the target is unchanged. In words: Allosteric activation of Clostridioides difficile Toxin B assessed as induction of autoproteolysis by measuring increase in TcdB cleavage at 50 uM incubated for 3 hrs in presence of 10 mM CaCl2 by silver staining based SDS-PAGE analysis relative to control.
The target is the same in series [23]. Briefly: Stabilization of His6 tagged Clostridioides difficile holo-Toxin B truncated cysteine protease domain (543 to 799 residues) extracted from Escherichia coli BL21 (DE3) assessed as peaks with change in chemical shift perturbation at 350 uM by 1H-15N-HSQC NMR analysis relative to control.
Series [24] can be described thus: Metal chelating activity assessed as compound-Ca2+ complex formation by measuring precipitation at 250 uM at pH 2 to 8 incubated for 30 mins in presence of 3 to 10 mM CaCl2 by turbidimetric assay.
In series [25] the target is Toxin B (Clostridioides difficile) (UniProt P18177). Briefly: Competitive binding affinity to His6 tagged Clostridioides difficile Toxin B truncated cysteine protease domain (543 to 799 residues) extracted from Escherichia coli BL21 (DE3) assessed as peaks with change in chemical shift perturbation by measuring residual activity at 350 uM in presence of 1,3,5-(Tri-O-thiophosphate)-myo-inositol-2,4,6-tri-O-sulfate by 1H-15N-HSQC NMR analysis relative to control. The conditions noted are these: filed as positive allosteric modulator.

Series [26] in a line: Metal chelating activity assessed as compound-Mg2+ complex formation by measuring precipitation at 250 uM at pH 2 to 8 incubated for 30 mins in presence of 1.25 to 10 mM MgCl2 by turbidimetric assay.
Setting [27] is: filed as positive allosteric modulator.

As to `O=P(O)(O)O[C@@H]1[C@@H](OP(=O)(O)O)[C@H](OP(=O)(O)O)[C@H](OCc2ccccc2)[C@H](OP(=O)(O)O)[C@H]1OP(=O)(O)O`, the result in series [1] was Active.

`O=S(=O)(O)O[C@@H]1[C@@H](OP(O)(O)=S)[C@H](OS(=O)(=O)O)[C@H](OS(=O)(=O)O)[C@H](OS(=O)(=O)O)[C@H]1OP(O)(O)=S`: the results for the negative logarithm of the EC50 (pEC50) at Toxin B [2] and at Toxin B [7] were 4.57 and 3.25, respectively. The solubility result in series [3], in series [5] and in series [15] was “Soluble” each time. Moreover, the result in series [4], in [8] and in series [12] was inactive. In [6], the thermal shift (ΔTm) stood at 5.3 °C. Moreover, the Activity in series [9] came out at 0.11. In addition, the negative-log Kd (pKd) on Toxin B [10] is 5.66; at Toxin B [13], 5.33. In addition, the outcome in series [11] and in series [14] was Active.

As for `O=S(=O)(O)O[C@H]1[C@H](OP(O)(O)=S)[C@H](OS(=O)(=O)O)[C@H](OP(O)(O)=S)[C@@H](OS(=O)(=O)O)[C@@H]1OP(O)(O)=S`, the negative-log EC50 (pEC50) at Toxin B [2] was 5.45; at Toxin B [7], 3.95. Besides, the solubility result in [3], in [5] and in series [15] was “Soluble” in each case. The Activity is 7% in series [16]; 208 in [17]; 117% in [18]; -0.03 in series [9]; 42% in series [20] (setting [27]); 51% in series [22] (setting [27]). Moreover, the Activity in series [23] came out at 49%. The result in series [4], in [8] and in [12] was inactive. Besides, the ΔTm in [6] is 5.1 °C. Further, the result in series [19] (setting [27]), in series [21], in series [11] and in series [14] was Active. For the same compound, the pKd on Toxin B [10] is 6.18; on Toxin B [13], 5.58.

On to `O=S(=O)(O)O[C@@H]1[C@@H](OS(=O)(=O)O)[C@H](OS(=O)(=O)O)[C@H](OP(O)(O)=S)[C@H](OS(=O)(=O)O)[C@H]1OS(=O)(=O)O`, for which the solubility entry in [3], in [5] and in series [15] was “Soluble” in each case. For the same compound, the pKd at Toxin B [10] is 5.15.

Regarding `O=S(=O)(O)O[C@H]1[C@@H](OS(=O)(=O)O)[C@H](OS(=O)(=O)O)[C@@H](OP(O)(O)=S)[C@H](OS(=O)(=O)O)[C@H]1OS(=O)(=O)O`, the outcome in series [4], in [8] and in series [12] was inactive. For the same compound, the ΔTm in series [6] was found to be 3.1 °C. Besides, the result in series [21], in [11] and in series [14] was Active. For the same compound, the pKd at Toxin B [10] is 5.66.

On to `OP(O)(=S)O[C@H]1[C@H](OP(O)(O)=S)[C@@H](OP(O)(O)=S)[C@H](OP(O)(O)=S)[C@@H](OP(O)(O)=S)[C@H]1OP(O)(O)=S`, for which the values for the pEC50 at Toxin B [2] and at Toxin B [7] were 5.64 and 3.18, respectively. The solubility entry in series [3], in series [5] and in series [15] was “Soluble” throughout. In addition, the result in [4], in series [8] and in [12] was inactive. For the same compound, in series [6], the ΔTm was determined as 5.6 °C. In addition, the negative-log Kd (pKd) at Toxin B [10] is 6.74. Moreover, the result in [11] and in [14] was Active.

In the case of `O=S(=O)(O)O[C@H]1[C@H](OP(O)(O)=S)[C@@H](OS(=O)(=O)O)[C@H](OP(O)(O)=S)[C@@H](OS(=O)(=O)O)[C@H]1OP(O)(O)=S`, the Activity in [9] is -0.01. For the same compound, the values for the negative logarithm of the Kd (pKd) on Toxin B [10] and at Toxin B [13] were 5.65 and 5.27, respectively.

Consider `O=P(O)(O)O[C@H]1[C@H](OP(=O)(O)O)[C@@H](OP(=O)(O)O)[C@H](OP(=O)(O)O)[C@@H](OP(=O)(O)O)[C@H]1OP(=O)(O)O` [PHYTIC ACID], for which the results for the pEC50 at Toxin B [2] and at Toxin B [7] were 5.08 and 3.27, respectively. Further, the result in series [4], in series [19], in series [8] and in [12] was inactive. Further, the Activity in [17] was 193; in series [18] it was 98%; in series [25], 47%; in series [9] it was -1.28; in [20] it was 23%; in series [22], 6%. Moreover, the result in series [24] and in [26] was Active. Moreover, in series [6], the ΔTm is 3.3 °C. The pKd at Toxin B [10] was 5.87.
